The values below come from US11040035B2, “3-oxo-2,6-diphenyl-2,3-dihydropyridazine-4-carboxamides” (BAYER PHARMA AKTIENGESELLSCHAFT, priority 2016, dated 2021).

Molecules are shown by their SMILES.

The target of test [1] is T1, AHR (Homo sapiens, UniProt P35869).
T1 sequence (P35869 11-848): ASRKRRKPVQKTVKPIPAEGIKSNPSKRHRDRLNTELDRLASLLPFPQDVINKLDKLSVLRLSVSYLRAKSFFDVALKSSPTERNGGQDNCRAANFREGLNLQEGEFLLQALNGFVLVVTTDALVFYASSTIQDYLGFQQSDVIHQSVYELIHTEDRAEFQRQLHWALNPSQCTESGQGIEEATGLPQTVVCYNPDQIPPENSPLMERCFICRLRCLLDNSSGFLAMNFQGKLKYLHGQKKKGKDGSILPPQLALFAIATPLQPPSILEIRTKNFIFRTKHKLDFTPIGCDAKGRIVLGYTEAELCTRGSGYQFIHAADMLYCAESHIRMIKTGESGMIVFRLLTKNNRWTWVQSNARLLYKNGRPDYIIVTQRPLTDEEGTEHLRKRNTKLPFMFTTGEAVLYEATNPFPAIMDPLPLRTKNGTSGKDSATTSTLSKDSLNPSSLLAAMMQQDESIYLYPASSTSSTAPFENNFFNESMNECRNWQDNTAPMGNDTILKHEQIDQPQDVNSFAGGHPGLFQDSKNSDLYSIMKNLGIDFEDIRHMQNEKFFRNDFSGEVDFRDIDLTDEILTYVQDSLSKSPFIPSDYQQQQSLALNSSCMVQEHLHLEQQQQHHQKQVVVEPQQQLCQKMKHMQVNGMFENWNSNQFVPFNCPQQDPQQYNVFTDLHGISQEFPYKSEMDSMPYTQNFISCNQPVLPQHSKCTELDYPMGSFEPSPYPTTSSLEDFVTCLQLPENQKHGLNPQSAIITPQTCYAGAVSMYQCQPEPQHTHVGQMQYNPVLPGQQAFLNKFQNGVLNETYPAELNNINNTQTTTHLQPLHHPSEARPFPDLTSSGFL
Briefly: In vitro assay 2: agonism in human cell line (transactivation assay).
Experimental: Transactivation Assay in Human Cell Line (In Vitro Assays 1 and 2)
Transactivation assays were carried out in U87 glioblastoma cells (ATCC) endogenously expressing AHR. In addition the cells were stably transfected with an AHR inducible firefly luciferase reporter gene construct that carried AHR-binding sites (DRE) in its promoter and a renilla reporter gene construct with constitutively active promoter.
In Vitro Assay 2: Agonism in Human Cell Line
Cells in medium (tryptophan free RPMI, 1% FCS, 2 mM Glutamine) were grown for 20 hours in absence (negative control) or presence of increasing concentrations of test compounds (typical dilutions: 72 pmol/L, 0.25 nmol/L, 0.89 nmol/L; 3.1 nmol/L, 11 nmol/L, 38 nmol/L, 130 nmol/L, 470 nmol/L, 1.6 μmol/L, 5.7 μmol/L and 20 μmol/L in duplicates). As positive activation control cells were incubated with 300 μM kynurenic acid. Normalization was done by positive and negative controls.
Firefly luciferase activity was determined by the SteadyGlo Luciferase Assay System (Promega, #2520).

The target in test [2] is T1, AHR. As to the kind of experiment: In vitro assay 1: antagonism in human cell line (transactivation assay, kynurenic acid prestimulated). Conditions: Assay 1: AHR-luc Hum Antagonism IC50 [M], 150 μM kynurenic acid, 20 hours, firefly luciferase.
Where [3] appears, read: Assay 2: AHR-luc Hum Agonism IC50 [M], no kynurenic acid, 20 hours, firefly luciferase.
The mark [4] stands for this setting: read-out: Assay 2: AHR-luc Hum Agonism IC50, no kynurenic acid, 20 hours, firefly luciferase.

Regarding `O=C(NCC(O)C(F)(F)F)c1cc(-c2ccc(Cl)c(Cl)c2)nn(-c2cccc(F)c2)c1=O` (single isomer, unassigned) [Example 308, 6-(3,4-Dichlorophenyl)-2-(3-fluorophenyl)-3-oxo-N-(3,3,3-trifluoro-2-hydroxypropyl)-2,3-dihydropyridazine-4-carboxamide], the half-inhibitory concentration (IC50) against AHR [1] (setting [3]) is > 2e-05 M; against AHR [2], 1.77e-07 M.

On to `CC(C)C(O)CNC(=O)c1cc(-c2ccc(Cl)cc2)nn(-c2cc(F)cc(F)c2)c1=O` (centres unmarked) [Example 48, 6-(4-Chlorophenyl)-2-(3,5-difluorophenyl)-N-(2-hydroxy-3-methylbutyl)-3-oxo-2,3-dihydropyridazine-4-carboxamide], for which the results for the IC50 on AHR [1] (setting [3]) and against AHR [2] were > 2e-05 M and 4.93e-08 M, respectively.

For `O=C(NCC(O)C(F)(F)F)c1cc(-c2ccc(Cl)cc2)nn(-c2ccccc2)c1=O` (single isomer, unassigned) [Example 78, 6-(4-chlorophenyl)-3-oxo-2-phenyl-N-(3,3,3-trifluoro-2-hydroxypropyl)-2,3-dihydropyridazine-4-carboxamide], the 50% inhibitory concentration (IC50) was > 2e-05 M on AHR [1] (setting [4]) and 2.66e-07 M against AHR [2].

As for `O=C(NC(CO)C1CCOC1)c1cc(-c2ccc(Cl)cc2)nn(-c2cccc(F)c2)c1=O` (centres unmarked) [Example 38, 6-(4-Chlorophenyl)-2-(3-fluorophenyl)-N-[2-hydroxy-1-(tetrahydrofuran-3-yl)ethyl]-3-oxo-2,3-dihydropyridazine-4-carboxamide], the concentration for half-maximal inhibition (IC50) is > 2e-05 M against AHR [1] (setting [3]) and 3.87e-08 M against AHR [2].

Regarding `CC(CO)CNC(=O)c1cc(-c2ccc(Cl)cc2)nn(-c2cccc(F)c2)c1=O` (single isomer, unassigned; (+)) [Example 201, (+)-6-(4-Chlorophenyl)-2-(3-fluorophenyl)-N-(3-hydroxy-2-methylpropyl)-3-oxo-2,3-dihydropyridazine-4-carboxamide], the IC50 against AHR [1] (setting [3]) was > 2e-05 M; against AHR [2] it was 8.64e-08 M.

For `CC(C)[C@@H](CO)NC(=O)c1cc(-c2ccc(OC(F)F)cc2)nn(-c2cccc(F)c2)c1=O` [Example 110, 6-[4-(Difluoromethoxy)phenyl]-2-(3-fluorophenyl)-N-[(2S)-1-hydroxy-3-methylbutan-2-yl]-3-oxo-2,3-dihydropyridazine-4-carboxamide], the IC50 is > 2e-05 M at AHR [1] (setting [3]) and 1.79e-08 M at AHR [2].

In the case of `CC(C)[C@@H](CO)NC(=O)c1cc(-c2ccc(Cl)c(F)c2)nn(-c2cccc(F)c2)c1=O` [Example 285, 6-(4-Chloro-3-fluorophenyl)-2-(3-fluorophenyl)-N-[(2S)-1-hydroxy-3-methylbutan-2-yl]-3-oxo-2,3-dihydropyridazine-4-carboxamide], the IC50 at AHR [1] (setting [3]) was > 2e-05 M; against AHR [2], 9.39e-08 M.

Consider `O=C(NC(CO)C1CCCO1)c1cc(-c2ccc(C(F)(F)F)cc2)nn(-c2cccc(F)c2)c1=O` (single isomer, unassigned) [Example 339, 1,4-anhydro-2,3,5-trideoxy-5-[({2-(3-fluorophenyl)-3-oxo-6-[4-(trifluoromethyl)phenyl]-2,3-dihydropyridazin-4-yl}carbonyl)amino]hexitol], for which the IC50 on AHR [1] (setting [3]) was > 2e-05 M; against AHR [2], 4.59e-08 M.

Regarding `O=C(NC(CCO)C(F)(F)F)c1cc(-c2ccc(Cl)cc2)nn(-c2cccc(F)c2)c1=O` (single isomer, unassigned; (+)) [Example 343, (+)-6-(4-chlorophenyl)-2-(3-fluorophenyl)-3-oxo-N-(1,1,1-trifluoro-4-hydroxybutan-2-yl)-2,3-dihydropyridazine-4-carboxamide], the half-maximal inhibitory concentration (IC50) at AHR [1] (setting [4]) is > 2e-05 M; against AHR [2] it was 1.49e-08 M.

On to `O=C(NC(CO)C(F)(F)F)c1cc(-c2ccc(Cl)cc2)nn(-c2cccc(F)c2)c1=O` (single isomer, unassigned; (-)) [Example 98, (−)-6-(4-Chlorophenyl)-2-(3-fluorophenyl)-3-oxo-N-(1,1,1-trifluoro-3-hydroxypropan-2-yl)-2,3-dihydropyridazine-4-carboxamide], for which the concentration for half-maximal inhibition (IC50) at AHR [1] (setting [3]) and on AHR [2] was > 2e-05 M throughout.

`O=C(NC1(CO)CCCCC1)c1cc(-c2ccc(Cl)cc2)nn(-c2cccc(F)c2)c1=O` [Example 215, 6-(4-Chlorophenyl)-2-(3-fluorophenyl)-N-[1-(hydroxymethyl)cyclohexyl]-3-oxo-2,3-dihydropyridazine-4-carboxamide]: the IC50 is > 2e-05 M against AHR [1] (setting [3]) and 1.66e-07 M against AHR [2].

For the compound `O=C(NC(CO)C1CCOC1)c1cc(-c2ccc(OC(F)(F)F)cc2)nn(-c2cccc(F)c2)c1=O` (centres unmarked) [Example 174, 2-(3-Fluorophenyl)-N-[2-hydroxy-1-(tetrahydrofuran-3-yl)ethyl]-3-oxo-6-[4-(trifluoromethoxy)phenyl]-2,3-dihydropyridazine-4-carboxamide], the IC50 against AHR [1] (setting [3]) was > 2e-05 M; against AHR [2], 3.33e-08 M.

With `COCC(O)CNC(=O)c1cc(-c2ccc(Cl)cc2)nn(-c2cccc(F)c2)c1=O` (centres unmarked) [Example 31, 6-(4-Chlorophenyl)-2-(3-fluorophenyl)-N-(2-hydroxy-3-methoxypropyl)-3-oxo-2,3-dihydropyridazine-4-carboxamide], the results for the concentration for half-maximal inhibition (IC50) against AHR [1] (setting [3]) and on AHR [2] were > 2e-05 M and 1.61e-07 M, respectively.

Take `COCCC(CO)NC(=O)c1cc(-c2ccc(C(F)(F)F)cc2)nn(-c2cccc(F)c2)c1=O` (racemic) [Example 259, 2-(3-Fluorophenyl)-N-[(2RS)-1-hydroxy-4-methoxybutan-2-yl]-3-oxo-6-[4-(trifluoromethyl)phenyl]-2,3-dihydropyridazine-4-carboxamide]: the IC50 at AHR [1] (setting [3]) was > 2e-05 M; against AHR [2], 3.82e-08 M.

Regarding `O=C(NCC(O)C(F)(F)F)c1cc(-c2ccc(OC(F)F)cc2)nn(-c2cccc(F)c2)c1=O` (centres unmarked) [Example 120, 6-[4-(Difluoromethoxy)phenyl]-2-(3-fluorophenyl)-3-oxo-N-(3,3,3-trifluoro-2-hydroxypropyl)-2,3-dihydropyridazine-4-carboxamide], the IC50 at AHR [1] (setting [3]) was > 2e-05 M; against AHR [2] it was 4.47e-08 M.

With `Cc1ccc(-c2cc(C(=O)NCC(C)O)c(=O)n(-c3cccc(F)c3)n2)cc1` (centres unmarked) [Example 13, 2-(3-Fluorophenyl)-N-(2-hydroxypropyl)-6-(4-methylphenyl)-3-oxo-2,3-dihydropyridazine-4-carboxamide], the figures for the IC50 against AHR [1] (setting [3]) and on AHR [2] were > 2e-05 M and 1.43e-07 M, respectively.

For the compound `O=C(N[C@H]1COC[C@@H]1O)c1cc(-c2ccc(Cl)cc2)nn(-c2cccc(F)c2)c1=O` (single isomer, unassigned) [Example 136, 6-(4-Chlorophenyl)-2-(3-fluorophenyl)-N-(trans-4-hydroxytetrahydrofuran-3-yl)-3-oxo-2,3-dihydropyridazine-4-carboxamide], the IC50 at AHR [1] (setting [4]) is > 2e-05 M; at AHR [2], 1.43e-07 M.

With `C[C@H](O)[C@H](C)NC(=O)c1cc(-c2ccc(Cl)c(Cl)c2)nn(-c2cccc(F)c2)c1=O` (relative stereo) [Example 305, rel-6-(3,4-Dichlorophenyl)-2-(3-fluorophenyl)-N-[(2S,3S)-3-hydroxybutan-2-yl]-3-oxo-2,3-dihydropyridazine-4-carboxamide], the IC50 against AHR [1] (setting [3]) is > 2e-05 M; against AHR [2], 1.21e-07 M.

For the compound `O=C(NCC(O)C(F)(F)F)c1cc(-c2ccc(C(F)(F)F)cc2)nn(-c2cccc(F)c2)c1=O` (single isomer, unassigned; (+)) [Example 244], the values for the IC50 on AHR [1] (setting [4]) and at AHR [2] were > 2e-05 M and 3.17e-08 M, respectively.

Consider `CC(C)[C@@H](CO)NC(=O)c1cc(-c2ccc(Cl)c(F)c2)nn(-c2cc(F)cc(F)c2)c1=O` [Example 401, 6-(4-chloro-3-fluorophenyl)-2-(3,5-difluorophenyl)-N-[(2S)-1-hydroxy-3-methylbutan-2-yl]-3-oxo-2,3-dihydropyridazine-4-carboxamide], for which the half-maximal inhibitory concentration (IC50) was > 2e-05 M against AHR [1] (setting [3]) and 1e-07 M against AHR [2].

For the compound `O=C(N[C@H]1COCC[C@H]1O)c1cc(-c2ccc(Cl)cc2)nn(-c2cccc(F)c2)c1=O` [Example 273, 1,5-Anhydro-2-({[6-(4-chlorophenyl)-2-(3-fluorophenyl)-3-oxo-2,3-dihydropyridazin-4-yl]carbonyl}amino)-2,4-dideoxy-D-erythro-pentitol], the values for the IC50 against AHR [1] (setting [3]) and on AHR [2] were > 2e-05 M and 4.31e-08 M, respectively.

Take `C[C@H](NC(=O)c1cc(-c2ccc(OC(F)F)cc2)nn(-c2cccc(F)c2)c1=O)C(C)(C)O` [Example 386, 6-[4-(difluoromethoxy)phenyl]-2-(3-fluorophenyl)-N-[(2S)-3-hydroxy-3-methylbutan-2-yl]-3-oxo-2,3-dihydropyridazine-4-carboxamide]: the IC50 on AHR [1] (setting [3]) is > 2e-05 M; against AHR [2] it was 6.5e-08 M.

Broadly, the IC50 is the concentration at which inhibition is half-maximal.
